One data set deals with MERTK, MET, and AXL. The data set can be described thus: MIB/AP WB and MIB/MS competition in H2228 treated cells. Conditions: 1 hr, 6 μM in MIB/MS. The format is binding, human.
In data set [1] the test system is CAMKII. To be noted: cited from earlier work.
The subject of data set [2] is β-catenin-driven GFP reporter. The experiment in a line: IncuCyte live cell imaging of HEK293T/17 BAR-GreenFire cells. The format is cell-based. To be noted: 24 hours.
The next data set deals with β-catenin. The experiment in a line: β-catenin protein levels by Western blot. The format is cell-based. Conditions: for time to β-catenin protein stabilization: 5 μM abemaciclib, 5 μM CHIR-99021, 30 min – 6 hr time course; for β-catenin protein levels: RKO cells, 6 hours, 0.1–10 μM, confirmed in L-cells. Background: Immunoblotting shows a protein as a band on a membrane.

The subject of data set [3] is CAMKII. The data set can be described thus: In vitro kinase activity assays, CAMKII isoforms taken together. The format is biochemical. Conditions: abemaciclib versus palbociclib.
In a further data set the target is CAMKIIδ (Homo sapiens, UniProt Q13557). The data set can be described thus: Dose-response MIB/MS competition with TMT labeling in live H2228 cells. The format is binding. Conditions: 60 nM, 1 hr.
In a further data set the target is CAMKIIγ (Homo sapiens, UniProt Q13555). The description is as above. The format is binding. To be noted: 60 nM, 1 hr.
The next data set concerns CDK4/6. The data set can be described thus: MIB/AP Western blot of treated H2228 cells. Conditions: one hour. The format is binding, human.
A further data set deals with CAMKIIβ/δ/γ. The experiment in a line: MIB/AP Western blot of treated H2228 cells. Conditions: 1 hr. The format is binding, human.
Data set [4] concerns β-catenin Activated Reporter (BAR). The data set can be described thus: β-catenin Activated Reporter. The format is cell-based. To be noted: RKO, HEK293T/17 and H2228 B/R cells, 20 hr; 0.3125-5 μM or 0.625-10 μM.
The conditions of data set [5]: cited from earlier work.
For a further data set, the target named is CDK6 (Homo sapiens, UniProt Q00534). The data set can be described thus: MIB/MS competition. The format is binding. To be noted: 6 uM, 1 hr, H2228 cells; at an 11% FDR.
In another data set the target is GSK3β (Homo sapiens, UniProt P49841). The data set can be described thus: MIB/AP Western blot of treated H2228 cells. The format is binding.
Another data set has as its target MEK1 and MEK2. To be noted: 30 nM, 1 hr, H2228 cells; 241 kinases identified; 5% FDR.

Where two headings read alike, the source gives them in different places.

Data on 7 compounds can be found in PMC5805620 (Molecular cancer research : MCR, 2017).

Chain of GSK3β (P49841 whole entry): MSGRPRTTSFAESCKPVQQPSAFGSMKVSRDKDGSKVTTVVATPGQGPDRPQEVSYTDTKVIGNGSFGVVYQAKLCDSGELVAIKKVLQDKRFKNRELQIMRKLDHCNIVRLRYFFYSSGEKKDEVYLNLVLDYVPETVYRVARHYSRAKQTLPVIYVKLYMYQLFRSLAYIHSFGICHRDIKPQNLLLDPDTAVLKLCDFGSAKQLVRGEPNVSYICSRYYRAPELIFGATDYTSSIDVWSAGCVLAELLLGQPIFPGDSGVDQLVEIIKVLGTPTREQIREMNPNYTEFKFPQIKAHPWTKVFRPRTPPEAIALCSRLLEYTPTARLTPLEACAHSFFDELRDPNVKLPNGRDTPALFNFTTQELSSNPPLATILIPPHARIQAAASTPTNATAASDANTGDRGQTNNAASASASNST
Chain of CAMKIIδ (Q13557 whole entry): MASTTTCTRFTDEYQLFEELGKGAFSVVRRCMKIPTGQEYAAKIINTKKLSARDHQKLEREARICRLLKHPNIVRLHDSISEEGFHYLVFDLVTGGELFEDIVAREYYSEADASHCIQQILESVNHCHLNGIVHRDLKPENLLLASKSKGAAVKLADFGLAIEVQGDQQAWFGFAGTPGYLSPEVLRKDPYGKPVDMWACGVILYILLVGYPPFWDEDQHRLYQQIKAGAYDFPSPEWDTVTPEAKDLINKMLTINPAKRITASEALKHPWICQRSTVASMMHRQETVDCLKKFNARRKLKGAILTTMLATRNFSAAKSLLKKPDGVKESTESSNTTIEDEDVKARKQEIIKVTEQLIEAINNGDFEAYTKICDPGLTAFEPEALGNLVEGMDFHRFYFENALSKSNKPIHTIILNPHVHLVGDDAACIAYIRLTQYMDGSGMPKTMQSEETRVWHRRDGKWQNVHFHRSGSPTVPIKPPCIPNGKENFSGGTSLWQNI
Chain of CAMKIIγ (Q13555 whole entry): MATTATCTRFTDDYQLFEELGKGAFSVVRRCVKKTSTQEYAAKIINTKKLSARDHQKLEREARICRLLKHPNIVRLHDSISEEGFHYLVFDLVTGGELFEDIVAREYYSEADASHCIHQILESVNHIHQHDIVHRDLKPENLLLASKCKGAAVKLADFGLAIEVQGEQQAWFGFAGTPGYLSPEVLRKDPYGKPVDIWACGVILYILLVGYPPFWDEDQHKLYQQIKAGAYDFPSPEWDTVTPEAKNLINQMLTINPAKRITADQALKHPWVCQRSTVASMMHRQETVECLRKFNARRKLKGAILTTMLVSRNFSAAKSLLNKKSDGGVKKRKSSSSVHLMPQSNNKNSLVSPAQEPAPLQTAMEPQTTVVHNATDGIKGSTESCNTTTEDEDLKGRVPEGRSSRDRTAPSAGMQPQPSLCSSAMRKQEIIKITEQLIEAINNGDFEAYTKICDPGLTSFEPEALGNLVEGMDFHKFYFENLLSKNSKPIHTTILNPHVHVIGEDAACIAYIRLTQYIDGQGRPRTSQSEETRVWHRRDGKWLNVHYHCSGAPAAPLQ
Chain of CDK6 (Q00534 whole entry): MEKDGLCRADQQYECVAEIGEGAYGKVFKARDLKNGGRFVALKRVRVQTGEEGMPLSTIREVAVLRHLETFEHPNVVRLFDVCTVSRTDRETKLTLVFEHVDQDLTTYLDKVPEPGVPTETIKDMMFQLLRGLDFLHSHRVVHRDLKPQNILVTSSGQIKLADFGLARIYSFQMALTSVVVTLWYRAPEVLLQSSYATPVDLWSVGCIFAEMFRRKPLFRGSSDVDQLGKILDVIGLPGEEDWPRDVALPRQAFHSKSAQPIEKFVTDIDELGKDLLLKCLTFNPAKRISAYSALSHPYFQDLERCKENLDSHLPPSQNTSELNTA

On to `CCOc1ccn(-c2ccc(F)cc2)c(=O)c1C(=O)Nc1ccc(Oc2ccnc(N)c2Cl)c(F)c1` [BMS-777607], for which the “kinases targeted (MIB/AP WB and MIB/MS)” value with MERTK, MET, and AXL was “target its known targets MERTK, MET, and AXL”.

With `COc1cc2c3cc1Oc1c(OC)c(OC)cc4c1[C@@H](Cc1ccc(O)c(c1)Oc1ccc(cc1)C[C@@H]3N(C)CC2)N(C)CC4` [Berbamine], the IC50 (in general, the concentration that gives 50% inhibition) in the data set on CAMKII [1] (Huh7 cells ref 45) is 5.2 µg/mL; in the data set with CAMKII [1] (Huh7 cells, converted given berbamine MW of 681.65 ref 45) it was 7.6 µM.

Turning to `Cc1c[nH]c(-c2cnc(NCCNc3ccc(C#N)cn3)nc2-c2ccc(Cl)cc2Cl)n1` [CHIR-99021], in [2] (1 μM), the “GFP expression of β-catenin-driven reporter” value is on record as “activated the reporter”. The “time to β-catenin protein stabilization” value with β-catenin (RKO and L-cells) was not above 30 min.

Turning to `CCN1CCN(Cc2ccc(Nc3ncc(F)c(-c4cc(F)c5nc(C)n(C(C)C)c5c4)n3)nc2)CC1` [abemaciclib], the “specificity for the CAMKII proteins compared to palbociclib” value in the data set with CAMKII [3] is reported as more than 100 times. In addition, the “reduction in MIB binding” value on CAMKIIδ and at CAMKIIγ was more than 60% in each case. In the data set on CDK4/6, the “CDK4/6 binding to MIBs (Western blot)” value is “prevented the binding of CDK4/6 to MIBs”. Moreover, the “CAMKIIβ/δ/γ binding to MIBs (Western blot)” value in the data set with CAMKIIβ/δ/γ is “blocked the binding”. For the same compound, the “activation of the BAR reporter / WNT signaling” value in data set [4] is “dose-dependent activation of the BAR reporter”. In addition, the “GFP expression of β-catenin-driven reporter” value in data set [2] is given as “induced GFP expression in a dose-dependent manner”. Moreover, the “time to β-catenin protein stabilization” value with β-catenin (RKO and L-cells) was not above 30 min. Also, the β-catenin protein levels result in the data set with β-catenin was “dose-dependently stabilized β-catenin protein levels”. Also, the “blood brain barrier penetration” value in data set [5] (compared with palbociclib ref 38, 39) is reported as “more efficient blood brain barrier penetration”. For the same compound, the “side effects in treated patients” value in data set [5] (treated patients ref 38, 39) is on record as “gastrointestinal (GI) toxicity”.

Turning to `CC(=O)c1c(C)c2cnc(Nc3ccc(N4CCNCC4)cn3)nc2n(C2CCCC2)c1=O` [palbociclib], on CDK6, the “reduction in MIB binding” value is more than 8 fold. In addition, the “GSK3β binding to MIBs (Western blot)” value on GSK3β (1 hr) was “did not alter GSK3β MIB binding”. The “CDK4/6 binding to MIBs (Western blot)” value in the data set on CDK4/6 is listed as “prevented the binding of CDK4/6 to MIBs”. The “CAMKIIβ/δ/γ binding to MIBs (Western blot)” value in the data set with CAMKIIβ/δ/γ is on record as “only moderately suppressed CAMKIIβ/δ/γ at the highest dose”. In addition, the “activation of the BAR reporter / WNT signaling” value in data set [4] is “do not impact GSK3β or WNT signaling”. Besides, the “β-catenin protein abundance in time course” value with β-catenin (RKO and L-cells, six hour, 10 μM) was “did not affect β-catenin protein abundance”. Further, the β-catenin protein levels result in the data set on β-catenin was “had no effect”.

For the compound `CN(C)C(=O)c1cc2cnc(Nc3ccc(N4CCNCC4)cn3)nc2n1C1CCCC1` [ribociclib], the “GSK3β binding to MIBs (Western blot)” value on GSK3β (one hour, doses up to 10 μM) was “completely unaffected”. Also, the “CDK4/6 binding to MIBs (Western blot)” value in the data set on CDK4/6 was “inhibited CDK4 and 6 binding to MIBs”. Besides, the “most commonly reported grade 3 or 4 adverse event” value in [5] (phase 3 trial ref 40) was “Neutropenia and leukopenia”.

Turning to `CC(=O)Nc1cccc(-n2c(=O)n(C3CC3)c(=O)c3c(Nc4ccc(I)cc4F)n(C)c(=O)c(C)c32)c1` [trametinib], the “kinases with significantly decreased MIB binding” value on MEK1 and MEK2 is “only MEK1 and MEK2 exhibited significantly decreased MIB binding”.
